From article PMC5365060, “Construction of an octosyl acid backbone catalyzed by a radical S-adenosylmethionine enzyme and a phosphatase in the biosynthesis of high-carbon sugar nucleoside antibiotics” (Chemical Science, 2016) come the findings set out here.

This assay has as its target T1, PolH (Streptomyces aureochromogenes, UniProt J7G018).
T1 construct: pET28a, N-terminal His6 tag, E. coli; anaerobically purified, reconstituted [4Fe-4S]; motif C225XXXC229XXC232
The assay can be described thus: HPLC time course of OAP and […]'-deoxyadenosine. It is filed as biochemical. To be noted: 3'-EUMP, sodium dithionite, anaerobic; SAM consumed as co-substrate.

Structures are written as SMILES.

T1 sequence (J7G018 entry or part of it): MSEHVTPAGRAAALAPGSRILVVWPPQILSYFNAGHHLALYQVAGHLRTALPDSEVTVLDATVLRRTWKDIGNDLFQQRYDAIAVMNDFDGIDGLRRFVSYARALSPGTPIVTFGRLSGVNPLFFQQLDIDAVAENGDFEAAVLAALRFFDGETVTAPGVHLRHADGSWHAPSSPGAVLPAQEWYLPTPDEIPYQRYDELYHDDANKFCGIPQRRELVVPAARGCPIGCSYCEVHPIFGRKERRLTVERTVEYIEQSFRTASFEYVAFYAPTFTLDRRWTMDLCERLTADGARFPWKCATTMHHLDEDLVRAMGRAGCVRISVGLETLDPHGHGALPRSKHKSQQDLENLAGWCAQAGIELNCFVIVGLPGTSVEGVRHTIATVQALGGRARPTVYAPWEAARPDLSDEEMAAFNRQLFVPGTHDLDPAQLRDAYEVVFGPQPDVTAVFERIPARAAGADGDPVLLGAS

Take `C[S+](CC[C@H](N)C(=O)O)C[C@H]1O[C@@H](n2cnc3c(N)ncnc32)[C@H](O)[C@@H]1O` (stereo partly shown) [SAM]: the “HPLC time course of OAP and 5'-deoxyadenosine” value was “indicating that SAM was being used as a co-substrate”.
